Measured values published in patent US11746125B2, “Biomimetic peptides derived from biological source and their uses in retarding aging and improving skin” (TCI CO., LTD., priority 2019, dated 2023).

Test system: human fibroblast cell line (CCD-966SK)
Assay: Assay in increasing expression of genes: human fibroblast cells cultured with peptides, RNA detected by nCounter Analysis System
Format: cell-based
Method: A human fibroblast cell line (CCD-966SK) was used to assay gene expression affected by the peptides of the present disclosure. 1×10^5 of fibroblast cells were seeded and cultured in a 6-well plate containing 2 ml of X-VIVO™ 10 medium. […] The cells cultured with the medium only for 6 or 24 hours were used as control.
The resulting cultured cells were washed with PBS and lysed by adding a lysis reagent. The resulting cell lysis solutions were extracted by RNA Extraction Kit (GENEzol™ 96 Well TriRNA Pure Kit, Geneaid) to collect the RNAs in the cells. The expression of genes was detected by the nCounter Analysis System (NanoString Technologies, Inc.)

[1] = 12.5 μg/ml, 24 hours, vs control
[2] = peptides 12.5 and 25 μg/ml, 6 or 24 hours

Substance: VKNAKY [Hapa-6, synthetic 6-mer peptide VKNAKY]
- expression of anti-aging genes (Atg1, Ub1-5 and FOXO) (12.5 μg/ml, 6 hours, vs control): increase
- expression of genes relating to collagen breakdown (MMP-1) [1]: inhibits
- expressions of moisture-retention related genes (ELG-F and GBA) (25 μg/ml, vs control): increase
- expression of DNA repair genes (ERCC1) (12.5 and 25 μg/ml, 6 hours, vs control): increase
- expression of telomerase genes (TERC) (12.5 and 25 μg/ml, 24 hours, vs control): increase
- expression of TIMP1 (6 hours, vs control): increase
- expression of elastin genes (ELN) (6 hours, vs control): increase
- expression of collagen I genes (COL1A2) (24 hours, vs control): increase
- expression of DNA repair genes (ERCC1) [2]: increase
- expression of TIMP1 [2]: increase
- expression of anti-aging genes (Atg1, Ubl-5 and FOXO) [2]: increase
- expression of collagen I gene [2]: increase
- expression of elastin genes [2]: increase
- expression of genes relating to collagen breakdown (MMP-1) [2]: inhibits
- expression of moisture-retention related genes (ELG-F and GBA) [2]: increase
- expression of telomerase genes (TERC) [2]: increase

Substance: LKSGR [Latrol-5, synthetic 5-mer peptide LKSGR]
- expression of anti-aging genes (NADSYN, CCT2 and CCT8) (25 μg/ml, 6 hours, vs control): increases
- expression of collagen I gene (COL1A2) (25 μg/ml, 6 hours, vs control): increases
- expression of genes relating to collagen breakdown (MMP-1) (25 μg/ml, 6 hours, vs control): inhibiting
- expression of DNA repair genes (XRCC5 and/or MSH6) (6 hours, vs control): increases
- expression of telomerase genes (TERC) (24 hours, vs control): increase
- expression of DNA repair genes (UNG, MSH6, XRCCS and/or MSH6) [2]: increase
- expression of anti-aging genes (NADSYN, Atg1, MRPS5, CCT2 and/or CCT8) [2]: increase
- expression of telomerase genes (TERC) [2]: increase

Substance: QRIKYIKP [Chiro-8, synthetic 8-mer peptide QRIKYIKP]
- expression of moisture-retention related genes (SMPD1) (12.5 μg/ml and 25 μg/ml, 24 hours, vs control): increase
- expression of anti-aging genes (NADSYN, MRPS5, Ub1-5 and/or FOXO) [1]: increase
- expression of collagen I gene (COLA1) (12.5 μg/ml, vs control): increases
- expression of collagen IV gene (COL4A1) (12.5 μg/ml, vs control): increases
- expression of elastin gene (ELN) (12.5 μg/ml, vs control): increases
- expression of anti-inflammatory factor IL-6 (24 hours): inhibits
- expression of MMP1 (24 hours, vs control): inhibiting
- expression of anti-aging genes (NADSYN, MRPS5, Ub1-5 and/or FOXO) [2]: increase
- expression of anti-inflammatory factor IL-6 [2]: inhibits
- expression of collagen I gene [2]: increases
- expression of elastin genes [2]: increases
- expression of genes relating to collagen breakdown (MMP-1) [2]: inhibiting
- expression of moisture-retention related genes (SMPD1) [2]: increases

Substance: QKRRTCK [Heter-7, synthetic 7-mer peptide QKRRTCK]
- MMP1 (2.5 μg/ml, 12 hours, vs control): inhibiting
- expression of collagen I gene (12.5 μg/ml, vs control): increases
- expression of TIMP1 gene (25 μg/ml, 12 hours, vs control): increases
- expression of anti-aging genes (Atg1 and Ub15) (25 μg/ml, 12 hours, vs control): increase
- expression of telomerase gene (TERC) (25 μg/ml, 12 hours, vs control): increase
- expression of DNA repair genes (ERCC1 and XRCC5) (25 μg/ml, vs control): increase
- expression of anti-oxidation gene SOD2 (25 μg/ml, vs control): increase
- expression of DNA repair genes (ERCC1 and XRCCS) (peptides 12.5 and 25 μg/ml): increases
- expression of anti-aging genes (Atg1 and Ubl5) (peptides 12.5 and 25 μg/ml): increases
- expression of anti-oxidation gene SOD2 (peptides 12.5 and 25 μg/ml): increases
- expression of TIMP1 [2]: increases
- expression of collagen I gene [2]: increases
- expression of genes relating to collagen breakdown (MMP-1) [2]: inhibiting
- expression of telomerase genes (TERC) [2]: increases

Substance: KIFKF [Chiro-5, synthetic 5-mer peptide KIFKF]
- expression of anti-aging genes (NADSYN, MRPS5, Ub1-5 and/or FOXO) [1]: increase
- expression of MMP1 (25 μg/ml, vs control): inhibiting
- expression of collagen I gene (COL1A2) (25 μg/ml, vs control): increase
- expression of anti-aging genes (NADSYN, MRPS5, Ub1-5 and/or FOXO) [2]: increase
- expression of collagen I gene [2]: increases
- expression of genes relating to collagen breakdown (MMP-1) [2]: inhibiting

Substance: PRPIK [Hapa-5, synthetic 5-mer peptide PRPIK]
- expression of DNA repair genes (ERCC1) [1]: increase
- expression of telomerase genes (TERC) [1]: increase
- expression of anti-aging genes (Atg1, Ub1-5 and FOXO) (25 μg/ml, 24 hours, vs control): increase
- expression of genes relating to collagen breakdown (MMP-1) (25 μg/ml, 24 hours, vs control): inhibits
- expression of TIMP1 (6 hours, vs control): increases
- expression of collagen IV genes (COL4A1) (6 hours, vs control): increases
- expression of elastin genes (ELN) (6 hours, vs control): increases
- expression of DNA repair genes (ERCC1) [2]: increase
- expression of TIMP1 [2]: increase
- expression of anti-aging genes (Atg1, Ubl-5 and FOXO) [2]: increase
- expression of collagen IV gene [2]: increase
- expression of elastin genes [2]: increase
- expression of genes relating to collagen breakdown (MMP-1) [2]: inhibits
- expression of moisture-retention related genes (ELG-F and GBA) [2]: increase
- expression of telomerase genes (TERC) [2]: increase
- expressions of moisture-retention related genes (ELG-F and GBA) (vs control, concentration not given): increase

Substance: TKSGKF [Latrol-6, synthetic 6-mer peptide TKSGKF]
- expression of SMPD1 (moisture-retention related gene) and/or HAS2 (25 μg/ml, 6 hours, vs control): increases
- expression of anti-aging genes (NADSYN, Atgl, MRPS5) (25 μg/ml, 24 hours, vs control): increases
- expression of collagen I gene (COL1A1) (25 μg/ml, 24 hours, vs control): increases
- expression of collagen IV gene (COL4A1) (25 μg/ml, 24 hours, vs control): increases
- expression of elastin gene (ELN) (25 μg/ml, 24 hours, vs control): increases
- expression of DNA repair genes (UNG and MSH6) (6 hours or 24 hours, vs control): increases
- expression of telomerase genes (TERC) (6 hours, vs control): increase
- expression of DNA repair genes (UNG, MSH6, XRCCS and/or MSH6) [2]: increase
- expression of SMPD1 (moisture-retention related genes) and/or HSAS2 [2]: increases
- expression of anti-aging genes (NADSYN, Atg1, MRPS5, CCT2 and/or CCT8) [2]: increase
- expression of collagen I gene [2]: increases
- expression of collagen IV gene [2]: increases
- expression of elastin genes [2]: increases
- expression of genes relating to collagen breakdown (MMP-1) [2]: inhibiting
- expression of telomerase genes (TERC) [2]: increase
- expression of collagen I gene (text summary referring to FIG. 12 (A)): increases
